# Measurements from patent US10150766B2, “P2X7 modulators” (Jansssen Pharmaceutica NV, priority 2014, dated 2018).
# Like-named read-outs stand apart in the source and are kept apart here.
# Assays:
# P2X7 [1] = molecular target: T1, P2X7 (Homo sapiens (Human), UniProt Q99572); assay: P2X7 antagonism in human peripheral blood mononuclear cells (PBMCs), IL-1β release (LPS + Bz-ATP, ELISA); format: cell-based; conditions: P2X7, 10 μM test compound, LPS 30 ng/ml + Bz-ATP 0.5 mM, read-out: PBMC @10 μM (% control)
# Description: (§1) P2X7 Antagonism in Human Peripheral Blood Mononuclear Cells (PBMCs) and Human Whole Blood.
# (§2) Human blood was collected using a blood donor program. PBMCs were isolated from blood using a Ficoll density gradient technique. Briefly, blood was laid on Ficoll solution and centrifuged at ROOM TEMPERATURE for 20 minutes at 2000 rpm. The buffy layer (between red blood cells and plasma) was carefully collected by aspiration, washed with PBS and centrifuged again at 1500 rpm for 15 minutes. The resulting cell pellet was washed and plated on 96 well-plates for experiments. For the Human Whole Blood experiments, 150 μl of human blood was plated on 96 well-plates. Lipopolysaccharide (LPS) (30 ng/ml) was added to each well and incubated for 1 hour. Test compounds were then added and incubated for 30 minutes. The P2X7 agonist, 2′(3′)-O-(4-benzoylbenzoyl) adenosine 5′-triphosphate (Bz-ATP) was then added at a final concentration of 0.5 mM (PBMC) or 1 mM (blood). Cells were incubated for an additional 1.5 hours. At that point, supernatant was collected and stored for IL-1β assay using manufacturer's protocol for enzyme-linked immunosorbant assay (ELISA). Data was expressed as percent control, where control is defined as the difference in IL-1β release in LPS+Bz-ATP samples and LPS only samples. Data was plotted as response (% control) versus concentration to generate IC50 values. […] Data are analyzed and graphed on Graphpad Prism 5. For analysis, each concentration point is averaged from triplicate values and the averaged values are plotted on Graphpad Prism. The IC50 for each compound is then uploaded into 3DX.
# P2X7 [2] = molecular target: T1, P2X7; assay: Radioligand binding ([3H]A-804598) to membranes of human P2X7-1321N1 cells; conditions: human P2X7-1321N1 membranes, tracer tritiated A-804598, 1 hour at 4° C.
# Description: P2X7 Antagonism in Recombinant Human P2X7 Cells or Recombinant Rat P2X7 Cells:
# human or rat P2X7-1321N1 cells were collected and frozen @ −80° C. On the day of the experiment, cell membrane preparations were made according to standard published methods. […] The compound can be prepared as described in the literature. […] The assay was terminated by filtration (GF/B filters pre-soaked with 0.3% PEI) and washed with washing buffer (Tris-HCl 50 mM). The IC50 generated in the binding assay was corrected for tracer concentration and affinity of the tracer to derive at the affinity (Ki) of the test compounds. The data are presented in Table 2 under the headings: P2X7 human Ki (μM) and P2X7 rat Ki (μM). Data are analyzed and graphed on Graphpad Prism 5. For analysis, each concentration point is averaged from triplicate values and the averaged values are plotted on Graphpad Prism.
# rat P2X7 = rat P2X7 (Rattus norvegicus (Rat), UniProt Q64663); assay: P2X7 antagonism in recombinant rat P2X7 cells (column headed P2X7 Rat IC50); format: binding
# Description: The in vitro affinity of the compounds of the invention for the rat and human P2X7 receptor was determined using a human peripheral blood mononuclear cells (PBMCs), a human whole blood assay, a Ca^2+ flux and radioligand binding assay in recombinant human P2X7 cells and recombinant rat P2X7 cells. […] The data represented in Tables 2 may represent a value from a single determination or when the experiment was run more than once, the data represents the average from between 2-12 runs.
# P2X7 Antagonism in Recombinant Human P2X7 Cells or Recombinant Rat P2X7 Cells: […]
# P2X7 [3] = molecular target: T1, P2X7; assay: P2X7 antagonism in human whole blood, IL-1β release (LPS + Bz-ATP, ELISA); format: cell-based; conditions: LPS 30 ng/ml + Bz-ATP 1 mM
# Description: as §1, §2
# [4] = read-out: Human Whole Blood IC50
# Sequence of rat P2X7 (Q64663 whole entry): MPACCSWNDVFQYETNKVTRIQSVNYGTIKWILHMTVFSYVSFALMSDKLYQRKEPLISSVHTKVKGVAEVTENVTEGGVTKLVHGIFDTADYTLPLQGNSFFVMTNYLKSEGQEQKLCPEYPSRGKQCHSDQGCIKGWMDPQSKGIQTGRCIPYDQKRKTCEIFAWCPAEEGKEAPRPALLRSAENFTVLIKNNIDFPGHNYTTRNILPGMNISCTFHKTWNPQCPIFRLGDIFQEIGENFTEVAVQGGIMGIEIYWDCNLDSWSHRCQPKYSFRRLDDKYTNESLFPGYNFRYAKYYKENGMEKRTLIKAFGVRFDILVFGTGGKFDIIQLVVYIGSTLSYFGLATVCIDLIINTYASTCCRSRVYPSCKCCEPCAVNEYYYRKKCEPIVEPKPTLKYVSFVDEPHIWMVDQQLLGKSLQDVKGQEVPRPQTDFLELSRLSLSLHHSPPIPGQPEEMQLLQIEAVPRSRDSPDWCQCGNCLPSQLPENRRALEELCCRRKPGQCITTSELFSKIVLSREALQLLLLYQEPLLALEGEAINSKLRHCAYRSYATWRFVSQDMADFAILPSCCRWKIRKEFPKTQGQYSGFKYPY
# T1 sequence (Q99572 whole entry): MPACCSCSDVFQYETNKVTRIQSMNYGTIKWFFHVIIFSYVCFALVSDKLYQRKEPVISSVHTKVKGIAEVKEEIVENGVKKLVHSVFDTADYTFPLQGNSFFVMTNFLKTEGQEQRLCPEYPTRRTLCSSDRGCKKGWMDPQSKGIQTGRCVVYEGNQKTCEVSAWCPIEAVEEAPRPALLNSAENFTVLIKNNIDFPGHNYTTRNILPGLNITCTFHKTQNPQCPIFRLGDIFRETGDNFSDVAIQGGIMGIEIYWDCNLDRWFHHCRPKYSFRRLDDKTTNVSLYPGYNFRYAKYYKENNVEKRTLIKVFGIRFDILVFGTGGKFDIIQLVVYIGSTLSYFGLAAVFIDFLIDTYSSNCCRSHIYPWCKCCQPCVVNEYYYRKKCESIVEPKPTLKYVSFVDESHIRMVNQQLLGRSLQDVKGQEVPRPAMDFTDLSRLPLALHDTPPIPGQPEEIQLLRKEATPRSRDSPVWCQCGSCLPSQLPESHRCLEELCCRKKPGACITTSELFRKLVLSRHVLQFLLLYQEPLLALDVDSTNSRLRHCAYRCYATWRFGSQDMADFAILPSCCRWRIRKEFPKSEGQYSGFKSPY
Compound,remaining activity at 10 µM (P2X7 [1]) [%],Ki (P2X7 [2]) [nM],IC50 (rat P2X7) [nM],IC50 (P2X7 [3]; Human Whole Blood IC50 (μM)) [µM],IC50 (P2X7 [3]; [4]) [µM]
"Cc1nc(-c2ccc(F)cc2)c2c(n1)[C@H]1CCC[C@@H](C2)N1C(=O)c1cccc(Cl)c1Cl [Example 55, (2,3-dichlorophenyl)((6S,10R)-4-(4-fluorophenyl)-2-methyl-5,6,7,8,9,10-hexahydro-6,10-epiminocycloocta[d]pyrimidin-11-yl)methanone]",-1.6,105,217,0.037,–
"Cc1nc(-c2ccn[nH]2)c2c(n1)[C@H]1CCC[C@@H](C2)N1C(=O)c1ccc(Cl)cc1Cl [Example 20, (2,4-dichlorophenyl)((6S,10R)-2-methyl-4-(1H-pyrazol-5-yl)-5,6,7,8,9,10-hexahydro-6,10-epiminocycloocta[d]pyrimidin-11-yl)methanone]",-9.9,120,–,0.221,–
"Cc1nc(-c2cnccn2)c2c(n1)[C@H]1CCC[C@@H](C2)N1C(=O)c1ccc(Cl)c(F)c1Cl [Example 47, (2,4-dichloro-3-fluorophenyl)((6S,10R)-2-methyl-4-(pyrazin-2-yl)-5,6,7,8,9,10-hexahydro-6,10-epiminocycloocta[d]pyrimidin-11-yl)methanone]",-3.4,39.8,245,0.04,–
"Cc1nc(-c2ccn[nH]2)c2c(n1)[C@H]1CCC[C@@H](C2)N1C(=O)c1ccc(Cl)c(F)c1Cl [Example 23, (2,4-dichloro-3-fluorophenyl)((6S,10R)-2-methyl-4-(1H-pyrazol-5-yl)-5,6,7,8,9,10-hexahydro-6,10-epiminocycloocta[d]pyrimidin-11-yl)methanone]",-24.7,31.6,–,0.018,–
"Cc1nc(-c2ccn[nH]2)c2c(n1)[C@@H]1CCC[C@H](C2)N1C(=O)c1ccc(Cl)c(F)c1Cl [Example 10, (2,4-dichloro-3-fluorophenyl)((6R,10S)-2-methyl-4-(1H-pyrazol-5-yl)-5,6,7,8,9,10-hexahydro-6,10-epiminocycloocta[d]pyrimidin-11-yl)methanone]",22.4,631,–,0.459,–
"Cc1nc(-c2ncccn2)c2c(n1)[C@H]1CCC[C@@H](C2)N1C(=O)c1ccc(Cl)c(F)c1Cl [Example 44, (2,4-dichloro-3-fluorophenyl)((6S,10R)-2-methyl-4-(pyrimidin-2-yl)-5,6,7,8,9,10-hexahydro-6,10-epiminocycloocta[d]pyrimidin-11-yl)methanone]",-11.6,50.1,251,–,0.156
"Cc1nc(-c2cnccn2)c2c(n1)[C@H]1CCC[C@@H](C2)N1C(=O)c1cccc(C(F)(F)F)c1C [Example 50, (2-methyl-3-(trifluoromethyl)phenyl)((6S,10R)-2-methyl-4-(pyrazin-2-yl)-5,6,7,8,9,10-hexahydro-6,10-epiminocycloocta[d]pyrimidin-11-yl)methanone]",-2.2,93.3,67.8,–,0.158
"Cc1nc(-c2ccccn2)c2c(n1)[C@H]1CCC[C@@H](C2)N1C(=O)c1cccc(C(F)(F)F)c1C [Example 62, (2-methyl-3-(trifluoromethyl)phenyl)((6S,10R)-2-methyl-4-(pyridin-2-yl)-5,6,7,8,9,10-hexahydro-6,10-epiminocycloocta[d]pyrimidin-11-yl)methanone]",-1.4,63.1,51.3,0.058,–
"Cc1nc(-c2ccn[nH]2)c2c(n1)[C@@H]1CCC[C@H](C2)N1C(=O)c1cccc(Cl)c1Cl [Example 11, (2,3-dichlorophenyl)((6R,10S)-2-methyl-4-(1H-pyrazol-5-yl)-5,6,7,8,9,10-hexahydro-6,10-epiminocycloocta[d]pyrimidin-11-yl)methanone]",24.4,501,944,0.302,–
"Cc1nc(-c2ccccn2)c2c(n1)[C@H]1CCC[C@@H](C2)N1C(=O)c1cccc(Cl)c1Cl [Example 65, (2,3-dichlorophenyl)((6S,10R)-2-methyl-4-(pyridin-2-yl)-5,6,7,8,9,10-hexahydro-6,10-epiminocycloocta[d]pyrimidin-11-yl)methanone]",0.1,49,184,0.042,–
"Cc1nc(-c2ccn[nH]2)c2c(n1)[C@H]1CCC[C@@H](C2)N1C(=O)c1ccc(Cl)cc1F [Example 28, (4-chloro-2-fluorophenyl)((6S,10R)-2-methyl-4-(1H-pyrazol-5-yl)-5,6,7,8,9,10-hexahydro-6,10-epiminocycloocta[d]pyrimidin-11-yl)methanone]",-25.1,126,7940,–,0.423
"Cc1nc(-c2cnccn2)c2c(n1)[C@H]1CCC[C@@H](C2)N1C(=O)c1cccc(C(F)(F)F)c1Cl [Example 46, (2-chloro-3-(trifluoromethyl)phenyl)((6S,10R)-2-methyl-4-(pyrazin-2-yl)-5,6,7,8,9,10-hexahydro-6,10-epiminocycloocta[d]pyrimidin-11-yl)methanone]",-4.2,31.6,14.1,0.088,–
"Cc1nc(-c2ccccn2)c2c(n1)[C@H]1CCC[C@@H](C2)N1C(=O)c1ccc(Cl)c(F)c1Cl [Example 64, (2,4-dichloro-3-fluorophenyl)((6S,10R)-2-methyl-4-(pyridin-2-yl)-5,6,7,8,9,10-hexahydro-6,10-epiminocycloocta[d]pyrimidin-11-yl)methanone]",-2.8,20,376,0.037,–
"Cc1nc(-c2ccn[nH]2)c2c(n1)[C@H]1CCC[C@@H](C2)N1C(=O)c1ccnc(C(F)(F)F)c1Cl [Example 24, (3-chloro-2-(trifluoromethyl)pyridin-4-yl)((6S,10R)-2-methyl-4-(1H-pyrazol-5-yl)-5,6,7,8,9,10-hexahydro-6,10-epiminocycloocta[d]pyrimidin-11-yl)methanone]",2.4,126,19.2,0.038,–
"Cc1nc(-c2ccccn2)c2c(n1)[C@H]1CCC[C@@H](C2)N1C(=O)c1cccc(C(F)(F)F)c1Cl [Example 63, (2-chloro-3-(trifluoromethyl)phenyl)((6S,10R)-2-methyl-4-(pyridin-2-yl)-5,6,7,8,9,10-hexahydro-6,10-epiminocycloocta[d]pyrimidin-11-yl)methanone]",-0.9,39.8,33.1,0.068,–
"Cc1nc(-c2ncccn2)c2c(n1)[C@H]1CCC[C@@H](C2)N1C(=O)c1ccnc(C(F)(F)F)c1Cl [Example 42, (3-chloro-2-(trifluoromethyl)pyridin-4-yl)((6S,10R)-2-methyl-4-(pyrimidin-2-yl)-5,6,7,8,9,10-hexahydro-6,10-epiminocycloocta[d]pyrimidin-11-yl)methanone]",-16.1,126,157,–,0.107
"Cc1nc(-c2ccn[nH]2)c2c(n1)C1CCCC(C2)N1C(=O)c1cccc(Cl)c1Cl (centres unmarked) [Example 1, (2,3-dichlorophenyl)(2-methyl-4-(1H-pyrazol-5-yl)-5,6,7,8,9,10-hexahydro-6,10-epiminocycloocta[d]pyrimidin-11-yl)methanone]",3.3,31.6,101,0.027,–
